According to ChEMBL document CHEMBL1157539, “Thousands of chemical starting points for antimalarial lead identification” (Nature, 2010):

Test system: Plasmodium falciparum
Experiment: GSK_TCMDC: Inhibition of Plasmodium falciparum 3D7 in whole erythrocytes, using parasite LDH activity as an index of growth.
Format: functional, organism-based
Conditions: Plasmodium falciparum, 3D7

| SMILES | XC50 [µM] |
| --- | --- |
| O=C(/C=C/c1ccc(Cl)c(Cl)c1)NCCCCCCN1CCCN(C(=O)Nc2cc(Cl)cc(Cl)c2)CC1 | 0.78 |
| Clc1ccc2nnc(-c3c(Cl)cccc3Cl)n2n1 | 0.905 |
| CCOc1cc(C(=O)NC2CCN(Cc3ccccc3)CC2)ccc1-c1nc2cc(Cl)c(F)cc2[nH]1 | 0.802 |
| Cc1cc(N[C@@H](Cc2ccccc2)C(=O)NCCOc2ccccc2)nc(NCC2CCCCC2)n1 | 0.854 |
| Cc1cc(N[C@@H](CC(C)C)C(=O)NCc2cccs2)nc(Nc2ccccc2)n1 | 1.13 |
| O=C(Nc1ccccc1)c1cccc(Nc2nccc(Nc3ccc(Oc4ccccc4)cc3)n2)c1 | 1.55 |
| CCOc1ncccc1CN1CCC(N2CCc3cc(NC(=O)c4cc(C)on4)ccc32)C1 (centres undefined) | 0.312 |
| Cc1ccc(Oc2ccc(NC(=O)CNc3ccccc3N3CCCC3=O)cc2)cc1 | 0.366 |
| CC(C)C[C@H](NC(=O)c1cc2ccccc2s1)C(=O)N[C@H]1CCN(Cc2ccc(OCCN3CCNCC3)c3ccccc23)C1 | 1.42 |
| COc1ccccc1C(C)NCC(=O)Nc1ccccc1Sc1ccccc1 (centres undefined) | 1.1 |
| CN1CCCN(Cc2cccc(-c3cccc(NC(=O)c4cccc(Cl)c4)c3)c2)CC1 | 0.889 |
| CCCN(CCCCNC(=O)c1ccc(-c2cccnc2)cc1)C1CCc2c(O)cccc2C1 (centres undefined) | 1.12 |
| CCCCCCN1CCC(NCc2ccc(OCCN3CCCC3)cc2)CC1 | 0.719 |
| Cc1cc(C2CCN(CCCCNC(=O)c3ccc(-c4ccc(C(F)(F)F)cc4)cc3)CC2)c(C)cc1OCCOC1CCCCO1 (centres undefined) | 0.785 |
| c1ccc(Oc2ccc(Nc3ccnc4cc(-c5ccc(CN6CCOCC6)o5)ccc34)cc2)nc1 | 0.906 |
| CC(C)(C)CC(C)(C)c1ccc(O)c(CNC2CCCCC2)c1 | 0.0649 |
| COc1ccc2nccc([C@@H](O)CN3CCC(NCc4cc5cccc(OCc6ccccc6)c5[nH]4)CC3)c2c1 | 0.899 |
| Oc1cc(Nc2ccnc3cc(I)ccc23)c(F)cc1Cl | 0.832 |
| COc1ccc(Nc2nc(NN=Cc3cc(Br)c(O)cc3O)nc(Nc3ccc([N+](=O)[O-])cc3)n2)cc1 | 0.896 |
| CCc1c(CCNCCCCCCNCCc2ccc(OC)c(OC)c2CC)ccc(OC)c1OC | 0.735 |
| Cc1ccccc1C1CCN(C2CCC(NC(=O)/C=C/c3cccc(Cl)c3)CC2)CC1 (centres undefined) | 0.891 |
| N#Cc1ccc(N(CCOC(=O)c2ccc(Br)s2)Cc2ccccc2C(F)(F)F)cc1C(F)(F)F | 1.07 |
| CN(CCc1ccccc1)c1ncc(-c2ccccc2CNCc2ccccc2O)cn1 | 1.02 |
| CCCCCCN1CCN(Cc2cccc(NC(=O)c3cc4ccccc4s3)c2)CC1 | 0.912 |
| Cc1cccc2nc(-c3ccc(-c4cccc(NC(=O)Nc5ccsc5)c4)cc3)[nH]c12 | 0.799 |

| SMILES | XC50 [µM] |
| --- | --- |
| c1ccc(-c2cc(NCc3cccc4ccccc34)c3[nH]ncc3n2)cc1 | 0.518 |
| CCN(CC)CC(O)CNc1c2ccc([N+](=O)[O-])cc2nc2cc(OC)c(OC)cc12 (centres undefined) | 0.266 |
| CCC(CC)(CCC#N)CN(C[C@@H](O)[C@H](Cc1ccccc1)NC(=O)OC(C)(C)C)S(=O)(=O)c1ccc(OC)cc1 | 1.04 |
| Cc1cccn2c(=O)c3cc(C(=O)NCCc4ccccc4)c(=N)n(CCCOC(C)C)c3nc12 | 0.481 |
| O=c1cc(NCCCNCc2csc(Br)c2Sc2ccc(Cl)cc2)[nH]c2ccccc12 | 0.849 |
| Fc1ccc2c(NN=Cc3ccccc3F)ccnc2c1 | 0.562 |
| COc1ccccc1NC(=O)OC(COc1ccc(N)cc1)CN1CC=C(c2ccccc2)CC1 (centres undefined) | 1.04 |
| c1ccc(CCNCc2ccc(-c3ccc(CNC4CCN(Cc5ccccc5)CC4)cc3)nc2)cc1 | 0.446 |
| CC(=O)Nc1ccc(Nc2cc(C)nc(Nc3ccc(NC(C)=O)cc3)n2)cc1 | 0.894 |
| COc1ccc2c(=NN=Cc3ccccc3Cl)cc(C)[nH]c2c1 | 0.373 |
| O=C(Nc1cccc(-c2nn3ncccc3c2-c2ccnc(Nc3cccc(C(F)(F)F)c3)n2)c1)c1c(F)cccc1F | 0.648 |
| CCN(CC)CCCNc1ncc2c(-c3ccc(NC(=O)Nc4cc(C(F)(F)F)ccc4F)cc3)nn(C)c2n1 | 0.22 |
| CC(C)[C@H](NC(=O)c1c(F)cccc1F)C(=O)Nc1ccc(Cc2nc3ccccc3s2)cc1 | 0.498 |
| OC(COc1ccccc1-c1nc2ccccc2o1)CN1CCCN(CCc2ccccc2)CC1 (centres undefined) | 0.758 |
| CC(CN1CCN(C)CC1)C(=O)Nc1cccc(-c2ccc(-c3nc4ccccc4[nH]3)cc2)c1 (centres undefined) | 0.943 |
| CCC(CN1C(=O)C(c2ccccc2)(c2ccccc2)N=C1N)c1ccccc1 (centres undefined) | 0.136 |
| CN1C(C)(C)CC(NC(=O)c2ccc(-c3cc4cc(Cl)c(Cl)cc4[nH]3)o2)CC1(C)C | 1.12 |
| O=C(/C=C/c1ccc(Cl)c(Cl)c1)N1CCC(CN2CCC(c3c(Br)[nH]c4ccccc34)CC2)CC1 | 0.289 |
| COc1cc(NC(=O)N2CCOC(CCN3CCC4(CCc5ccccc54)CC3)(c3ccc(Cl)c(Cl)c3)C2)cc(OC)c1OC (centres undefined) | 0.156 |
| COc1ccc(C(=O)NC(Nc2ccc([N+](=O)[O-])cc2)C(Cl)(Cl)Cl)cc1 (centres undefined) | 1.07 |
| O=C(NC1CCCCC1)N(Cc1cccc(-c2ccc(CNCCc3ccccc3)cc2)c1)C1CCN(Cc2ccccc2)CC1 | 0.65 |
| CCNc1cc(C(=O)N[C@@H](Cc2ccccc2)[C@H](O)CN[C@H](C)c2ccccc2)cc(N2CCCC2=O)c1 | 0.0543 |
| COc1cccc(C(=O)C2CC2CN(C)CC(O)c2cc(C)c(OC)cc2C)c1 (centres undefined) | 1.14 |
| COc1cc2nc(NCCN3CCOCC3)n3nc(-c4ccccc4)nc3c2cc1OC | 0.215 |
